Laboratory results published in US3962282A, “Juvenile hormone mimics” (priority 1974, dated 1976).

Experiments:
housefly larvae = experiment: topical application to housefly larvae; format: in vivo, Musca domestica
Description: (§1) The compounds were applied in acetone solution at concentrations of 10 percent, 1 percent and 0.5 percent. One microliter of the acetone solution was applied to each test specimen. Ten test specimens were employed for each insect at each concentration and compared to ten acetone controls and ten zero controls. Approximately eight to ten days were required before results could be ascertained.
A number of compounds were tested against housefly larvae by topical application in an acetone solution using the method described above for the primary test against Tenebrio, milkweed bug, wax moth, and Mexican bean bettel. The results with the first compound are reported on a scale of 0 to 3 with 0 indicating a normal adult, 1 indicating an adult with deformed wings, 2 indicating a partially emerged adult, and 3 indicating no evidence of emergence. The results for the other compounds are reported onn a scale of 0 to 2 with 0 indicating a normal adult, 1 indicating a partially emerged adult and 2 indicating no evidence of emergence.

milkweed bug = experiment: topical application to milkweed bug, fourth nymphal stage, maturation inhibition; format: in vivo; settings: rating scale 0-3
Description: as §1
(§2) The insect species used in the test were Tenebrio molitor pupae; milkweed bug, fourth nymphal stage; wax moth, fifth larval stage; and Mexican bean beetle, fourth larval stage. At the completion of the test, each specimen was examined for the degree of juvenile and adult characteristics. The milkweed bug, wax moth, and Mexican bean beetle were assigned a numerical rating of 0 to 3 with 0 indicating no effect and 3 indicating the maximum effect or least adult development. Because of differences in morphology the Tenebrio rating scale was 0 to 4. In all cases a rating of 2 or higher means that the insect is incapable of reproduction. The number of specimens in each rating classification are given. In any test were the total of specimens reported is less than 10, those unreported died in some metamorphic stage. Such deaths indicate control, since the dead insects are not capable of reproducing.

Tenebrio molitor pupae = experiment: topical application to Tenebrio molitor pupae, maturation inhibition; format: in vivo
Description: as §1, §2

wax moth = experiment: topical application to wax moth, fifth larval stage, maturation inhibition; format: in vivo
Description: as §1, §2

Mexican bean beetle = experiment: topical application to Mexican bean beetle, fourth larval stage, maturation inhibition; format: in vivo
Description: as §1, §2

[1] = test system: Housefly (Musca domestica); experiment: housefly rearing diet test, percent adult emergence; format: in vivo
Description: Test compounds were mixed with the rearing diet of houseflys at various levels. The prepared diet was then placed in an 8 oz. drinking cup. Three cups were prepared for each treatment level and three control cups. Housefly eggs (Musca domestica) were placed in each cup and they were maintained at 28°C. for 1 week. Fifty pupae were then removed from each cup and placed in a petri dish. After the control pupae had emerged into adults, the percent emergence in each dish was recorded. The test compounds used were 7,8-epoxy-4-ethyl-8-methyl-1-(3,4-methylenedioxyphenyl)-3-decene, 4,8-dimetyl-1-(3,4-methylenedioxyphenyl)-2,6-nonadiene and 2,6-dichloro-2,6-dimethyl-9-(3,4-methylenedioxyphenyl)nonane.

[2] = 10% in acetone, 1 microliter topical, rating scale 0 (no effect) to 3 (maximum)

## CC(C)=CCC/C(C)=C\CCc1ccc(Cl)cc1 [cis-9-(4-chlorophenyl)-2,6-dimethyl-2,6-nonadiene]
Housefly larvae; 0.5%, scale 0-2
  number in rating 0 (normal adult): 3
  number in rating 1 (partially emerged adult): 3
  number in rating 2 (no evidence of emergence): 3
Housefly larvae; 1%, scale 0-2
  number in rating 0 (normal adult): 2
  number in rating 1 (partially emerged adult): 2
  number in rating 2 (no evidence of emergence): 4
Housefly larvae; 10%, scale 0-2
  number in rating 1 (partially emerged adult): 2
  number in rating 2 (no evidence of emergence): 6

## CC(C)=CCC/C(C)=C/CCc1ccc(Cl)cc1 [trans-2,6-dimethyl-9-(4-chlorophenyl)-2,6-nonadiene]
Housefly larvae; 0.5%, scale 0-2
  number in rating 0 (normal adult): 4
  number in rating 2 (no evidence of emergence): 6
Housefly larvae; 1%, scale 0-2
  number in rating 0 (normal adult): 3
  number in rating 1 (partially emerged adult): 3
  number in rating 2 (no evidence of emergence): 4
Housefly larvae; 10%, scale 0-2
  number in rating 0 (normal adult): 3
  number in rating 1 (partially emerged adult): 1
  number in rating 2 (no evidence of emergence): 5
Milkweed bug; 0.5%
  number of specimens in rating 3: 10 specimens
Milkweed bug; 1%
  number of specimens in rating 3: 10 specimens
Milkweed bug; 10%
  number of specimens in rating 3: 10 specimens
Tenebrio molitor pupae; 0.5%, rating scale 0-4
  number of specimens in rating 0: 10 specimens
Tenebrio molitor pupae; 1%, rating scale 0-4
  number of specimens in rating 0: 4 specimens
  number of specimens in rating 1: 3 specimens
  number of specimens in rating 3: 3 specimens
Tenebrio molitor pupae; 10%, rating scale 0-4
  number of specimens in rating 4: 10 specimens
Wax moth; 0.5%, rating scale 0-3
  number of specimens in rating 0: 10 specimens
Wax moth; 1%, rating scale 0-3
  number of specimens in rating 0: 9 specimens
  number of specimens in rating 2: 1 specimens
Wax moth; [2]
  number of specimens in rating 0: 6 specimens
Wax moth; 10%, rating scale 0-3
  number of specimens in rating 1: 1 specimens
  number of specimens in rating 2: 3 specimens
Mexican bean beetle; 0.5%, rating scale 0-3
  number of specimens in rating 3: 10 specimens
Mexican bean beetle; 1%, rating scale 0-3
  number of specimens in rating 3: 10 specimens
Mexican bean beetle; 10%, rating scale 0-3
  number of specimens in rating 3: 10 specimens

## CC(=CCCc1ccc2c(c1)OCO2)CCC1OC1(C)C (stereo not shown) [9-(3,4-methylenedioxyphenyl)-2,6-dimethyl-2,3-epoxy-6-nonene]
Housefly larvae; 1%, scale 0-2
  number in rating 2 (no evidence of emergence): 10
Housefly larvae; 10%, scale 0-2
  number in rating 2 (no evidence of emergence): 10
Milkweed bug; 0.5%
  number of specimens in rating 1: 2 specimens
  number of specimens in rating 2: 4 specimens
Milkweed bug; 1%
  number of specimens in rating 1: 5 specimens
  number of specimens in rating 3: 2 specimens
Milkweed bug; 10%
  number of specimens in rating 3: 7 specimens
Tenebrio molitor pupae; 0.5%, rating scale 0-4
  number of specimens in rating 4: 10 specimens
Tenebrio molitor pupae; 1%, rating scale 0-4
  number of specimens in rating 0: 1 specimens
  number of specimens in rating 4: 9 specimens
Tenebrio molitor pupae; 10%, rating scale 0-4
  number of specimens in rating 4: 10 specimens

## CC(C)=CCC/C(C)=C/CCc1ccc(Cl)c(Cl)c1 [trans-2,6-dimethyl-9-(3,4-dichlorophenyl)-2,6-nonadiene]
Housefly larvae; 0.5%, scale 0-3
  number in rating 0 (normal adult): 3
  number in rating 2 (partially emerged adult): 1
  number in rating 3 (no evidence of emergence): 6
Housefly larvae; 1%, scale 0-3
  number in rating 0 (normal adult): 8
  number in rating 3 (no evidence of emergence): 2
Housefly larvae; 10%, scale 0-3
  number in rating 0 (normal adult): 5
  number in rating 3 (no evidence of emergence): 5
Milkweed bug; 0.5%
  number of specimens in rating 3: 10 specimens
Milkweed bug; 1%
  number of specimens in rating 3: 10 specimens
Milkweed bug; 10%
  number of specimens in rating 3: 10 specimens
Tenebrio molitor pupae; 0.5%, rating scale 0-4
  number of specimens in rating 0: 10 specimens
Tenebrio molitor pupae; 1%, rating scale 0-4
  number of specimens in rating 0: 10 specimens
Tenebrio molitor pupae; 10% in acetone, 1 microliter topical, rating scale 0 (no effect) to 4 (maximum)
  number of specimens in rating 0: 10 specimens
Wax moth; 0.5%, rating scale 0-3
  number of specimens in rating 0: 10 specimens
Wax moth; 1%, rating scale 0-3
  number of specimens in rating 0: 10 specimens
Wax moth; [2]
  number of specimens in rating 0: 10 specimens
Mexican bean beetle; 0.5%, rating scale 0-3
  number of specimens in rating 0: 10 specimens
Mexican bean beetle; 1%, rating scale 0-3
  number of specimens in rating 0: 10 specimens
Mexican bean beetle; [2]
  number of specimens in rating 0: 6 specimens
Mexican bean beetle; 10%, rating scale 0-3
  number of specimens in rating 1: 1 specimens
  number of specimens in rating 2: 1 specimens
  number of specimens in rating 3: 2 specimens

## CC(C)(Cl)CCCC(C)(Cl)CCCc1ccc2c(c1)OCO2 (stereo not shown) [2,6-dichloro-2,6-dimethyl-9-(3,4-methylenedioxyphenyl)nonane]
Housefly larvae; 0.5%, scale 0-2
  number in rating 0 (normal adult): 2
  number in rating 2 (no evidence of emergence): 8
Housefly larvae; 1%, scale 0-2
  number in rating 0 (normal adult): 1
  number in rating 2 (no evidence of emergence): 9
Housefly larvae; 10%, scale 0-2
  number in rating 2 (no evidence of emergence): 10
Milkweed bug; 0.5%
  number of specimens in rating 3: 8 specimens
Milkweed bug; 1%
  number of specimens in rating 3: 10 specimens
Milkweed bug; 10%
  number of specimens in rating 3: 5 specimens
Tenebrio molitor pupae; 0.5%, rating scale 0-4
  number of specimens in rating 1: 2 specimens
  number of specimens in rating 2: 8 specimens
Tenebrio molitor pupae; 1%, rating scale 0-4
  number of specimens in rating 2: 10 specimens
Tenebrio molitor pupae; 10%, rating scale 0-4
  number of specimens in rating 2: 1 specimens
  number of specimens in rating 3: 9 specimens
Wax moth; 0.5%, rating scale 0-3
  number of specimens in rating 0: 10 specimens
Wax moth; 1%, rating scale 0-3
  number of specimens in rating 0: 10 specimens
Wax moth; [2]
  number of specimens in rating 0: 10 specimens
Mexican bean beetle; 0.5%, rating scale 0-3
  number of specimens in rating 0: 8 specimens
  number of specimens in rating 1: 2 specimens
Mexican bean beetle; 1%, rating scale 0-3
  number of specimens in rating 0: 5 specimens
  number of specimens in rating 1: 3 specimens
  number of specimens in rating 2: 2 specimens
Mexican bean beetle; 10%, rating scale 0-3
  number of specimens in rating 1: 1 specimens
  number of specimens in rating 2: 4 specimens
  number of specimens in rating 3: 5 specimens
[1]; 0.1 ppm in diet
  percent adult emergence, Cup 1: 100%
  percent adult emergence, Cup 2: 100%
  percent adult emergence, Cup 3: 100%
[1]; 1 ppm in diet
  percent adult emergence, Cup 1: 100%
  percent adult emergence, Cup 2: 100%
  percent adult emergence, Cup 3: 100%
[1]; 10 ppm in diet
  percent adult emergence, Cup 1: 100%
  percent adult emergence, Cup 2: 90%
  percent adult emergence, Cup 3: 90%
[1]; 100 ppm
  control: 100%
[1]; 100 ppm in diet
  percent adult emergence, Cup 1: 0%
  percent adult emergence, Cup 2: 0%
  percent adult emergence, Cup 3: 0%
